39 molecules from the supplement of paper PMC11003180 can be followed below.

Common to all, as to experiment: drug sensitivity score (DSS) from 5-dose viability curve (DSS (area-based score, 0 = no response)); higher = more sensitive (stronger viability inhibition); extreme values may be limits of the assay
Assay [1] concerns MDCK p60AmotL2-inducible + doxycycline (p60AmotL2 expressing). To be noted: doxycycline: 10 ng/mL; 72 h. Summed up:
(§1)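 Pre-spotted 384-well plates held 528 oncology drugs, each at five doses from 1 to 10,000 nM. Parental and doxycycline-inducible MDCK cells, exposed beforehand to 10 ng/mL doxycycline in the medium, were added at 2000 cells/well and incubated 72 h at 37 °C. Viability came from CellTiter-Glo luminescence normalized per plate to vehicle and positive controls, and the Breeze pipeline fitted dose-response curves to give drug sensitivity scores.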

The test system of assay [2] is MDCK wild-type + doxycycline. To be noted: doxycycline: 10 ng/mL; 72 h. Summed up:
as §1

Assay [3] relates to MDCK wild-type - doxycycline. To be noted: doxycycline: none; 72 h. Summed up:
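Parental MDCK cells without doxycycline were dispensed at 2000 cells/well onto pre-spotted 384-well plates. The plates held an oncology library of 528 drugs at five doses (1-10,000 nM) and were incubated 72 h at 37 °C. Viability was read as CellTiter-Glo luminescence and scaled per plate between vehicle and positive controls. Drug sensitivity scores came from dose-response curve fits in the Breeze pipeline.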

The structures appear in SMILES notation.

As to `CCCN(CCC)C(=O)C1=Cc2ccc(-c3ccc(C(=O)N4CCCC4)cc3)cc2N=C(N)C1` [Motolimod], the drug sensitivity score is 2.5 in assay [1], 0.8 in assay [2] and 0 in assay [3].
In the case of `O=C(CCCCCCC(=O)Nc1ccc([C@H]2O[C@@H](CSc3nc(-c4ccccc4)c(-c4ccccc4)o3)C[C@@H](c3ccc(CO)cc3)O2)cc1)NO` [Tubacin], the drug sensitivity score in assay [1], in assay [2] and in assay [3] was 0 in each case.
With `Cc1cc(Nc2cc(CN3CCOCC3)c3nc(C)c(Cc4ccc(Cl)cc4F)n3n2)n[nH]1` [Gandotinib], the figures for the drug sensitivity score in assay [1], in assay [2] and in assay [3] were 8.2, 5.5 and 6.3, respectively.
On to `CN1CCC(CNc2ccc3ncc(-c4cccc(OC(F)(F)F)c4)n3n2)CC1` [SGI-1776], for which the drug sensitivity score in assay [1] was determined as 7.5; in assay [2] it was 6.3; in assay [3], 6.6.
On the same counts, the results for `Cc1[nH]c2ccccc2c1CCNCc1ccc(/C=C/C(=O)NO)cc1` [Panobinostat] are 15, 12.5 and 15.2.
For `CO[C@H]1C(=O)[C@]2(C)[C@@H](OC)C[C@H]3OC[C@@]3(OC(C)=O)[C@H]2[C@H](OC(=O)c2ccccc2)[C@]2(O)C[C@H](OC(=O)[C@H](O)[C@@H](NC(=O)OC(C)(C)C)c3ccccc3)C(C)=C1C2(C)C` [Cabazitaxel], in that order: 38, 37.7 and 33.8.
As for `CC(C)(C)c1cc(NC(=O)Nc2ccc(Oc3ccnc4[nH]c(=O)cnc34)cc2F)n(-c2ccccc2)n1`, the drug sensitivity score in assay [1] was determined as 7; in assay [2], 5.1; in assay [3], 4.9.
For `C[C@H]1C[C@@H](n2c(Nc3ccc(OC(F)(F)F)cc3)nc3cc(CCC(=O)O)ccc32)CC(C)(C)C1`, in that order: 0, 0 and 0.
On the same counts, the results for `COc1cc(N2CCC(N3CCN(C)CC3)CC2)ccc1Nc1ncc(Cl)c(Nc2ccccc2P(C)(C)=O)n1` [Brigatinib] are 5.2, 2.6 and 4.1.
For `Cc1ccc(=O)n(-c2ccccc2)c1` [Pirfenidone], the drug sensitivity score in assay [1], in assay [2] and in assay [3] was 0 throughout.
In the case of `NS(=O)(=O)NCCNc1nonc1/C(=N/O)Nc1ccc(F)c(Br)c1` [Epacadostat], the drug sensitivity score in assay [1], in assay [2] and in assay [3] was 0 in each case.
Consider `Nc1ccn([C@@H]2O[C@H](CO)[C@@H](O)C2(F)F)c(=O)n1` [Gemcitabine], for which the values for the drug sensitivity score in assay [1], in assay [2] and in assay [3] were 7.7, 5.5 and 2.2, respectively.
With `CC(C)(O)CC(=O)NCCn1ccc2ncnc(Nc3ccc(Oc4cccc(C(F)(F)F)c4)c(Cl)c3)c21` [TAK-285], the drug sensitivity score came to 6.4 in assay [1], 3.1 in assay [2] and 1.8 in assay [3].
For `CC(C)Cn1cnc2c(N)nc3ccccc3c21` [Imiquimod], in that order: 0.3, 0 and 0.
For `CC(C)C(=O)Nc1ccc([N+](=O)[O-])c(C(F)(F)F)c1` [Flutamide], in that order: 0, 0 and 0.
On the same counts, the results for `CN1CCN(CCOc2cc(OC3CCOCC3)c3c(Nc4c(Cl)ccc5c4OCO5)ncnc3c2)CC1` [Saracatinib] are 19.5, 12.6 and 12.6.
Turning to `CN1CCC(COc2cnc(-c3cccc(Cn4nc(-c5cccc(C#N)c5)ccc4=O)c3)nc2)CC1` [Tepotinib], the values for the drug sensitivity score in assay [1], in assay [2] and in assay [3] were 0.1, 0 and 0, respectively.
`Cc1ccc(Nc2nccc(N(C)c3ccc4c(C)n(C)nc4c3)n2)cc1S(N)(=O)=O` [Pazopanib]: the drug sensitivity score in assay [1], in assay [2] and in assay [3] was 0 each time.
On to `CC[C@H](C)C(=O)O[C@H]1C[C@@H](C)C=C2C=C[C@H](C)[C@H](CC[C@@H]3C[C@@H](O)CC(=O)O3)[C@H]21` [Lovastatin], for which the drug sensitivity score in assay [1], in assay [2] and in assay [3] was 0 throughout.
`C=C(c1ccc(C(=O)O)cc1)c1cc2c(cc1C)C(C)(C)CCC2(C)C` [Bexarotene]: the drug sensitivity score was 0 in assay [1], 0 in assay [2] and 0.2 in assay [3].
In the case of `Cc1cnc(-c2ccccc2C(C)C)nc1NCc1ccc(-n2ccnn2)cc1` [ML323], the drug sensitivity score in assay [1] was found to be 1.4; in assay [2], 0; in assay [3] it was 0.
For the molecule `CCNCCS(=O)(=O)NC[C@@]1(c2ccccc2)SC(NC(=O)C(C)(C)C)=NN1C(=O)C(C)(C)C` [Litronesib], the drug sensitivity score in assay [1] is 26.6; in assay [2] it was 25.1; in assay [3], 22.
For `CCCCCCCCc1ccc(CCC(N)(CO)CO)cc1` [Fingolimod], in that order: 6.7, 8.7 and 6.7.
Consider `COc1ccc2[nH]cc(/C=C3\C(=O)Nc4ccc(NC(=O)CCN5CCCCC5)cc43)c2c1`, for which the drug sensitivity score in assay [1] amounted to 9.4; in assay [2], 7.3; in assay [3], 6.
On the same counts, the results for `O=C(NOCCO)c1ccc2cncn2c1Nc1ccc(I)cc1F` [GDC-0623] are 0.3, 0 and 1.4.
For `CC(C)Nc1cc(-c2c[nH]c(C(=O)N[C@H](CO)c3cccc(Cl)c3)c2)c(Cl)cn1` [Ulixertinib], the figures for the drug sensitivity score in assay [1], in assay [2] and in assay [3] were 9.6, 4.9 and 3.2, respectively.
As for `COc1cc(N2CCN(C)CC2)ccc1Nc1nccc(-c2cn(C)c3cnccc23)n1` [AZ191], the values for the drug sensitivity score in assay [1], in assay [2] and in assay [3] were 2.2, 2.5 and 0, respectively.
On the same counts, the results for `CNC(=O)CN1CCC(Oc2cc3c(Nc4cccc(Cl)c4F)ncnc3cc2OC)CC1` [Sapitinib] are 12.9, 4.5 and 1.2.
For `CCCCOc1nc(N)c2c(n1)N(Cc1cccc(CN3CCCC3)c1)CC(=O)N2` [Vesatolimod], in that order: 0, 0 and 0.
For the molecule `Cc1cc(Nc2nc(N[C@@H](C)c3ncc(F)cn3)ncc2Cl)[nH]n1` [AZD1480], the drug sensitivity score in assay [1] worked out at 0.2; in assay [2], 0; in assay [3] it was 0.
`Cc1c(C(=O)Nc2ccc(N3C[C@@H](C)O[C@@H](C)C3)nc2)cccc1-c1ccc(OC(F)(F)F)cc1` [Sonidegib]: the values for the drug sensitivity score in assay [1], in assay [2] and in assay [3] were 0, 0 and 0.6, respectively.
As to `COCC1(CO)C(=O)C2CCN1CC2` (configuration not stated) [APR-246], the drug sensitivity score in assay [1], in assay [2] and in assay [3] was 0 each time.
Consider `Cc1ccc(F)c(NC(=O)Nc2ccc(-c3cccc4[nH]nc(N)c34)cc2)c1` [Linifanib], for which the drug sensitivity score in assay [1], in assay [2] and in assay [3] was 0 each time.
With `Cc1cc(Nc2ncc(Cl)c(Nc3ccccc3S(=O)(=O)C(C)C)n2)c(OC(C)C)cc1C1CCNCC1` [Ceritinib], the values for the drug sensitivity score in assay [1], in assay [2] and in assay [3] were 0, 0.6 and 0, respectively.
Take `Cc1cccc(-c2nn3c(c2-c2ccnc4ccc(C(N)=O)cc24)CCC3)n1` [Galunisertib]: the drug sensitivity score in assay [1], in assay [2] and in assay [3] was 0 in each case.
In the case of `CCc1c2c(nc3ccc(O)cc13)-c1cc3c(c(=O)n1C2)COC(=O)[C@]3(O)CC` [SN-38], the results for the drug sensitivity score in assay [1], in assay [2] and in assay [3] were 24.8, 23.3 and 21.1, respectively.
For `COCCNCc1ccc(-c2cc3nccc(Oc4ccc(NC(=S)NC(=O)Cc5ccc(F)cc5)cc4F)c3s2)nc1` [Glesatinib], in that order: 0.4, 0 and 0.
For `O=C(O)c1ccc(CN2CCC(CN[C@@H]3C[C@H]3c3ccccc3)CC2)cc1`, in that order: 0, 0 and 0.
With `CCn1c(-c2nonc2N)nc2c(C#CC(C)(C)O)ncc(OC[C@H]3CCCNC3)c21`, the results for the drug sensitivity score in assay [1], in assay [2] and in assay [3] were 0.2, 0 and 0, respectively.
